Measurements as given in ChEMBL document CHEMBL1139387, “Fragment-based discovery of the pyrazol-4-yl urea (AT9283), a multitargeted kinase inhibitor with potent aurora kinase activity” (J Med Chem, 2009).
pIC50: −log10 of the molar value. In brackets after ≈: the same amount, converted by molar mass.

Tests used:
Aurora kinase B = Aurora kinase B (Homo sapiens, UniProt Q96GD4); assay: Inhibition of Aurora B
[1] = target: Cyclin-dependent kinase 1/cyclin B1 (Homo sapiens, UniProt P06493); assay: Inhibition of CDK1/Cyclin B; format: protein-complex assay
Sequence of Cyclin-dependent kinase 1/cyclin B1 (P06493 whole entry): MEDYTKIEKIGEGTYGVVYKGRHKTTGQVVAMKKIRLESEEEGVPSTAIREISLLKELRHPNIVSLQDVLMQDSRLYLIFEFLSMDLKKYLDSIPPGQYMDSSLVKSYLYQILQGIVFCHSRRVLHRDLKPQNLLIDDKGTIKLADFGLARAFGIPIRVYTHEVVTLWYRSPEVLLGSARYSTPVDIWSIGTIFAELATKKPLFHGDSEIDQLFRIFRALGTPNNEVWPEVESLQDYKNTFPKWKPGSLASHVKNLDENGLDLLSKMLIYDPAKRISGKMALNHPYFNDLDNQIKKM
Sequence of Cyclin-dependent kinase 1/cyclin B1 (P14635 whole entry, further chain): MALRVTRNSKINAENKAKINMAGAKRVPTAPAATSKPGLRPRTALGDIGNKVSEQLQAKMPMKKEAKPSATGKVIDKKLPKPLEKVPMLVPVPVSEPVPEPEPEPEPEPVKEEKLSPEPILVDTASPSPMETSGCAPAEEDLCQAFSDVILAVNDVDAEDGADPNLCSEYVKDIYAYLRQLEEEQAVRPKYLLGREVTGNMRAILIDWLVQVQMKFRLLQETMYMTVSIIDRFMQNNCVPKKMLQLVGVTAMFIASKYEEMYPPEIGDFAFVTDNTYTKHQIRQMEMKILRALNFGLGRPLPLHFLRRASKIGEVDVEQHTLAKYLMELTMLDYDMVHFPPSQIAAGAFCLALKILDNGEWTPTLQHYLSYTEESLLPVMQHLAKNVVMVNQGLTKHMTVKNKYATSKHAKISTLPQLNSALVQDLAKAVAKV

HCT-116 [2] = assay: Cytotoxicity against human HCT116 cells assessed as distinct polyploidy phenotype after 72 hrs; format: functional
Aurora kinase A = target: T1, Aurora kinase A (Homo sapiens, UniProt O14965)
T1 sequence (O14965 whole entry): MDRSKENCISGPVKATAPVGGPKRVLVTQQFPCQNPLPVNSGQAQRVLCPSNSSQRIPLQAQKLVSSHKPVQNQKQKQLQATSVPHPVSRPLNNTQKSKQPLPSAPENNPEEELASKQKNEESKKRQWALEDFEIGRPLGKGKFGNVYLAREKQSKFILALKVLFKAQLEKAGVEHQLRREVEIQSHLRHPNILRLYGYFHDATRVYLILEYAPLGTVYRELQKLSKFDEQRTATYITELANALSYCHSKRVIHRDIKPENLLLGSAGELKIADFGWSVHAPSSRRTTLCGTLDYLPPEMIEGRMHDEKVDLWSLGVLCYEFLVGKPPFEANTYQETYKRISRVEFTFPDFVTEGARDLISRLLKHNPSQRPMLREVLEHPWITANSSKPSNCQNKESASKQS

[3] = target: Cyclin-dependent kinase 2 (Homo sapiens, UniProt P24941); assay: Inhibition of CDK2/Cyclin A
HCT-116 [4] = assay: Cytotoxicity against human HCT116 cells assessed as number of colonies after 10 to 14 days by colony forming assay; format: functional, cell-based
[5] = target: Cyclin-dependent kinase 1/cyclin B1 (Homo sapiens) (UniProt P06493+P14635); conditions: 1000 uM
Mus musculus [6] = assay: Toxicity in BALB/c mouse bearing human HCT116 cells assessed as body weight at 20 mg/kg, ip relative to starting weight; format: organism-based, HCT-116; set-up: dose 20 mg/kg, route intraperitoneal; conditions: in vivo
HCT-116 [7] = assay: Antitumor activity against human HCT116 cells xenografted in BALB/c mouse at 20 mg/kg, ip after 16 days relative to control; format: functional; conditions: route intraperitoneal
HCT-116 [8] = assay: Antitumor activity against human HCT116 cells xenografted in BALB/c mouse at 15 mg/kg, ip after 16 days relative to control; format: functional; conditions: route intraperitoneal
Mus musculus [9] = assay: Toxicity in BALB/c mouse bearing human HCT116 cells assessed as body weight at 15 mg/kg, ip relative to starting weight; format: organism-based, HCT-116; set-up: dose 15 mg/kg, route intraperitoneal; conditions: in vivo
in vitro = conditions: mouse, plasma
[10] = Lipophilicity, log D at pH 7.4; format: physicochemical; conditions: buffer
[11] = Oral bioavailability in mouse; format: ADME, organism-based; conditions: in vivo
[12] = Plasma concentration in mouse assessed per kg body weight; format: ADME, organism-based
Cytochrome P450 2C19 = Cytochrome P450 2C19 (Homo sapiens, UniProt P33261); assay: Inhibition of CYP2C19; format: ADME
Sequence of Cytochrome P450 2C19 (P33261 whole entry): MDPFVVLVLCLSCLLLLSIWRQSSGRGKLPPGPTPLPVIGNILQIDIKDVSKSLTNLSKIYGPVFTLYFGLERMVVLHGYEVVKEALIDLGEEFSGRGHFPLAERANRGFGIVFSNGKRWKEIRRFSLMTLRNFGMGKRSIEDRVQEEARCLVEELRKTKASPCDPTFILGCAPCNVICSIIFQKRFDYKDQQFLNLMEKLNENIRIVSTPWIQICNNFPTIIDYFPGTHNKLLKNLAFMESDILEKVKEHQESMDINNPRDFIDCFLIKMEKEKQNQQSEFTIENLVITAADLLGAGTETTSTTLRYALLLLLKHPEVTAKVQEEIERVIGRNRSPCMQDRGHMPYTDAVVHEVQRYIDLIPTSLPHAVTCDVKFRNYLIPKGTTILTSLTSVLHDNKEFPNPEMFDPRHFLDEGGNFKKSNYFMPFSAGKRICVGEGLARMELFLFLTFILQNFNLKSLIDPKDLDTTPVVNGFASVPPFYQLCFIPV

[13] = target: T2, Serine/threonine-protein kinase 17A (Homo sapiens, UniProt Q9UEE5); assay: Inhibition of DRAK1
T2 sequence (Q9UEE5 whole entry): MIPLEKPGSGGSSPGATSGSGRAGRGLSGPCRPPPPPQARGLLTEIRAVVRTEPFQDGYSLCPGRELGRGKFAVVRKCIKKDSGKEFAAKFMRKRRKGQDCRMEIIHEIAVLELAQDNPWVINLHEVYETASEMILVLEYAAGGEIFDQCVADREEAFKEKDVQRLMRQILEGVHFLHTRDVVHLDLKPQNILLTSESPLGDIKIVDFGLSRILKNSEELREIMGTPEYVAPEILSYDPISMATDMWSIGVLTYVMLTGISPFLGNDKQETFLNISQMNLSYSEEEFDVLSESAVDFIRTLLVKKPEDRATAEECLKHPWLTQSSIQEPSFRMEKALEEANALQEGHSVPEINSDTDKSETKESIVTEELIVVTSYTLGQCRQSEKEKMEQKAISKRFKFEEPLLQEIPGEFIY

[14] = Cmax in BALB/c mouse bearing human HCT116 cells at 20 mg/kg, ip; format: ADME, organism-based, HCT-116; set-up: dose 20 mg/kg, route intraperitoneal; conditions: in vivo
[15] = target: Tyrosine-protein kinase Yes (Homo sapiens, UniProt P07947); assay: Inhibition of Yes
Sequence of Tyrosine-protein kinase Yes (P07947 whole entry): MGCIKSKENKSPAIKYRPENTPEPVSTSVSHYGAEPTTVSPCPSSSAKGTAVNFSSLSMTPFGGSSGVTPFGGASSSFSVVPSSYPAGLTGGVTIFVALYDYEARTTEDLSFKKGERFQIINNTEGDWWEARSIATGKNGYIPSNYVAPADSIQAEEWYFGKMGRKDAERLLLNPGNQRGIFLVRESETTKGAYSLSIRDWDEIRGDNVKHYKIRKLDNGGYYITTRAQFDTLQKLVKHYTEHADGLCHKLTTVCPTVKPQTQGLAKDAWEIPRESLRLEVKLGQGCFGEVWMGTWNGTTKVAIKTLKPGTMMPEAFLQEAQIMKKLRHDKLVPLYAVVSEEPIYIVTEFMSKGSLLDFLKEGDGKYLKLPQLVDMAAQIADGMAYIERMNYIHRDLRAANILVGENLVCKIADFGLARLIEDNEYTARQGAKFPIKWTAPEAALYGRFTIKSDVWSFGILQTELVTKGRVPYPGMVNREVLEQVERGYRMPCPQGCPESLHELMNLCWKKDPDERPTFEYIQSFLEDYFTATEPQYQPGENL

[16] = AUC (0 to t) in BALB/c mouse bearing human HCT116 cells at 10 mg/kg, po; format: ADME, organism-based, HCT-116; set-up: dose 10 mg/kg, route oral; conditions: in vivo
Cytochrome P450 2D6 = Cytochrome P450 2D6 (Homo sapiens, UniProt P10635); assay: Inhibition of CYP2D6; format: ADME
Sequence of Cytochrome P450 2D6 (P10635 whole entry): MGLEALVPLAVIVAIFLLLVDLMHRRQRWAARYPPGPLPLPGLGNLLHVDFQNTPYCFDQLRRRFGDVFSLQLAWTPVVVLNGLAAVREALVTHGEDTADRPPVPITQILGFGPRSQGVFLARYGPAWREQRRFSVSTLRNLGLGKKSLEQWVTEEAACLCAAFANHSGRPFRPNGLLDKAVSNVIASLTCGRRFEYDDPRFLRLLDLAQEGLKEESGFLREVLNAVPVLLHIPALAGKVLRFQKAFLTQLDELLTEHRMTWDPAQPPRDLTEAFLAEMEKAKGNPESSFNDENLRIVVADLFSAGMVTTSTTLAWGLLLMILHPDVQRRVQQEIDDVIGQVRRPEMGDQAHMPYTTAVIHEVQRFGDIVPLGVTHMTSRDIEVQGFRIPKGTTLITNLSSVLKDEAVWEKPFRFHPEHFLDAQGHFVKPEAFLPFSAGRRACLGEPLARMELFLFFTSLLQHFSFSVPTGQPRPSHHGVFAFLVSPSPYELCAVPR

[17] = target: Vascular endothelial growth factor receptor 3 (Homo sapiens, UniProt P35916); assay: Inhibition of VEGFR3
Sequence of Vascular endothelial growth factor receptor 3 (P35916 whole entry): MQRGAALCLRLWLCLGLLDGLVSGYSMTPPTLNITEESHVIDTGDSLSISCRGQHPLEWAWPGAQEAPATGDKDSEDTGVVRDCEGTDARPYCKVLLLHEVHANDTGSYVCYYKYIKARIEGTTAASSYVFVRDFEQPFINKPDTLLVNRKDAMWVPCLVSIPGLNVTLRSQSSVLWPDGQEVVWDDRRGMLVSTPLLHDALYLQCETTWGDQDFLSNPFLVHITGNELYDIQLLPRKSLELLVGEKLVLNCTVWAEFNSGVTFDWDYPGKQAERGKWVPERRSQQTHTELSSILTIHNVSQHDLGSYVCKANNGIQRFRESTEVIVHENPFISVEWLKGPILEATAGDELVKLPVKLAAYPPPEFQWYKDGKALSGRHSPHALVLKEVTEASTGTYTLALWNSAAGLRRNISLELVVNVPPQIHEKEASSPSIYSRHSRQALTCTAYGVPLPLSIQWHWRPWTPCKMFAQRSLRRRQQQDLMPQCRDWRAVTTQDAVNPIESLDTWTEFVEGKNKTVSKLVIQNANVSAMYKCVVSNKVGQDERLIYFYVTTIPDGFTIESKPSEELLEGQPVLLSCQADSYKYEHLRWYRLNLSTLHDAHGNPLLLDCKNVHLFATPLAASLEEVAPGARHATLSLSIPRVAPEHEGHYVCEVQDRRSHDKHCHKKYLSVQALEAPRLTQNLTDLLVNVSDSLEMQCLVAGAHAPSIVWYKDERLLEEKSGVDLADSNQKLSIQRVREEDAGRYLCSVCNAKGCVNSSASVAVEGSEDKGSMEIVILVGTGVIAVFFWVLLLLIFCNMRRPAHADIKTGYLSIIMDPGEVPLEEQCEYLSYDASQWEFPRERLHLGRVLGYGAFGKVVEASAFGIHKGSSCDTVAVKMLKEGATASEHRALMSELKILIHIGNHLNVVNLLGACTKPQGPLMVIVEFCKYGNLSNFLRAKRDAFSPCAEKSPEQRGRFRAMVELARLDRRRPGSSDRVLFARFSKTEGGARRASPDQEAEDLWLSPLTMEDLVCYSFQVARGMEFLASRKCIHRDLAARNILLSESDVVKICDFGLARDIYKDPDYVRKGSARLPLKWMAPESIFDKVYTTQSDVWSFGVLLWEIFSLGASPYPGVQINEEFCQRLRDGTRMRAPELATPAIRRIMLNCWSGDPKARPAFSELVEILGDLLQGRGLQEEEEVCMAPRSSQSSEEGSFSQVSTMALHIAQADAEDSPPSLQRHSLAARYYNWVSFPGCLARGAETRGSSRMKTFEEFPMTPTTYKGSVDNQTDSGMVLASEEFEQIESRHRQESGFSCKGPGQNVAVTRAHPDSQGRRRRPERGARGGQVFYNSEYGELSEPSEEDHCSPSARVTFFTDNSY

[18] = AUC (0 to t) in BALB/c mouse bearing human HCT116 cells at 20 mg/kg, ip; format: ADME, organism-based, HCT-116; set-up: dose 20 mg/kg, route intraperitoneal; conditions: in vivo
[19] = AUC (0 to t) in BALB/c mouse bearing human HCT116 cells at 5 mg/kg, iv; format: ADME, organism-based, HCT-116; set-up: dose 5 mg/kg, route intravenous; conditions: in vivo
[20] = Half life in human HCT116 cells xenografted BALB/c mouse tumor at 10 mg/kg, iv; format: ADME, organism-based, HCT-116; set-up: dose 10 mg/kg, route intravenous
[21] = Volume of distribution at steady state in BALB/c mouse bearing human HCT116 cells at 5 mg/kg, iv; format: ADME, organism-based, HCT-116; set-up: dose 5 mg/kg, route intravenous; conditions: in vivo, read-out: Vdss
[22] = Half life in BALB/c mouse plasma bearing human HCT116 cells at 5 mg/kg, iv; format: ADME, organism-based, HCT-116; set-up: dose 5 mg/kg, route intravenous
[23] = Bioavailability in BALB/c mouse bearing human HCT116 cells at 20 mg/kg, ip; format: ADME, organism-based, HCT-116; conditions: in vivo
[24] = Cmax in BALB/c mouse bearing human HCT116 cells at 5 mg/kg, iv; format: ADME, organism-based, HCT-116; set-up: dose 5 mg/kg, route intravenous; conditions: in vivo
[25] = Solubility at pH 5.5; format: physicochemical; conditions: buffer
[26] = target: Glycogen synthase kinase-3 beta (Homo sapiens, UniProt P49841); assay: Inhibition of GSK3-beta
Sequence of Glycogen synthase kinase-3 beta (P49841 whole entry): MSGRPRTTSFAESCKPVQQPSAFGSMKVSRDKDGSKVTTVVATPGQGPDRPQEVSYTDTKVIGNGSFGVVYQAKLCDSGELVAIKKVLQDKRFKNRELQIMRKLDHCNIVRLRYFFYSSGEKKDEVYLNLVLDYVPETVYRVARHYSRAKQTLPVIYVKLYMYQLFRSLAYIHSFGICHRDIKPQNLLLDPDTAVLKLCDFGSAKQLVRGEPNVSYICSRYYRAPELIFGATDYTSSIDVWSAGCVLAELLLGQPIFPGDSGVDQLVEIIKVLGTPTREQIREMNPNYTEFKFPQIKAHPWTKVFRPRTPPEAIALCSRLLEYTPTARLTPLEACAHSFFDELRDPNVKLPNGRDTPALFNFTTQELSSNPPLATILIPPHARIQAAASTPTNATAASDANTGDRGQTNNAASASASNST

[27] = Solubility at pH 7.0; format: physicochemical; conditions: buffer
[28] = Clearance in BALB/c mouse bearing human HCT116 cells at 5 mg/kg, iv; format: ADME, organism-based, HCT-116; set-up: dose 5 mg/kg, route intravenous; conditions: in vivo, read-out: MLC
Cytochrome P450 1A2 = target: T3, Cytochrome P450 1A2 (Homo sapiens, UniProt P05177); assay: Inhibition of CYP1A2; format: ADME
T3 sequence (P05177 whole entry): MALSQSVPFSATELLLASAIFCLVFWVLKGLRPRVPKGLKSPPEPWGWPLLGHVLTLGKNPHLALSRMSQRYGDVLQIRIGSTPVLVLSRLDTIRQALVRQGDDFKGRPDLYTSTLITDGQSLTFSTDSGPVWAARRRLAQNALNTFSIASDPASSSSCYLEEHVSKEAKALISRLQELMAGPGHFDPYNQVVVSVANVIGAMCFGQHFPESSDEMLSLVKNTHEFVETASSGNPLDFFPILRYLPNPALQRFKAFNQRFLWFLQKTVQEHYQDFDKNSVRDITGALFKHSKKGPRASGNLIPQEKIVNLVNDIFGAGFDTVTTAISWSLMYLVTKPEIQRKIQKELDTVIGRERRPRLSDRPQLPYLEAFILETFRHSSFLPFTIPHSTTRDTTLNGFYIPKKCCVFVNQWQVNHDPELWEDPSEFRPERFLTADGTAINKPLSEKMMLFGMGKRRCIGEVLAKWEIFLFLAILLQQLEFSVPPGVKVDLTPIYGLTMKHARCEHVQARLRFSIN

[29] = Cmax in BALB/c mouse bearing human HCT116 cells at 10 mg/kg, po; format: ADME, organism-based, HCT-116; set-up: dose 10 mg/kg, route oral; conditions: in vivo
Cytochrome P450 2C9 = Cytochrome P450 2C9 (Homo sapiens, UniProt P11712); assay: Inhibition of CYP2C9; format: ADME
Sequence of Cytochrome P450 2C9 (P11712 whole entry): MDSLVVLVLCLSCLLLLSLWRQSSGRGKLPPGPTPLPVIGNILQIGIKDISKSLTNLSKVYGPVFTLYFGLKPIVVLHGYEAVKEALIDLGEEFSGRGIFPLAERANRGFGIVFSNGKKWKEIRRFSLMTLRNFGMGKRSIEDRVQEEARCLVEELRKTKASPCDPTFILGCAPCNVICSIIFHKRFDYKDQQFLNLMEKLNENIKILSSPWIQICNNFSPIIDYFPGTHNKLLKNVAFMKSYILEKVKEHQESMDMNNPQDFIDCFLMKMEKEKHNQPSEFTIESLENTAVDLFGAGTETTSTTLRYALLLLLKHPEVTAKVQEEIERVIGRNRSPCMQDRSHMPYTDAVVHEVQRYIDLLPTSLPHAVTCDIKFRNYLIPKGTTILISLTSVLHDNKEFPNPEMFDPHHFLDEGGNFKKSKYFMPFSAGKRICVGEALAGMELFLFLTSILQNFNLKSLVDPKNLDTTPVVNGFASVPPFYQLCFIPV

[30] = Oral bioavailability in BALB/c mouse bearing human HCT116 cells at 10 mg/kg; format: ADME, organism-based, HCT-116; conditions: in vivo

Sequence of Aurora kinase B (Q96GD4 whole entry): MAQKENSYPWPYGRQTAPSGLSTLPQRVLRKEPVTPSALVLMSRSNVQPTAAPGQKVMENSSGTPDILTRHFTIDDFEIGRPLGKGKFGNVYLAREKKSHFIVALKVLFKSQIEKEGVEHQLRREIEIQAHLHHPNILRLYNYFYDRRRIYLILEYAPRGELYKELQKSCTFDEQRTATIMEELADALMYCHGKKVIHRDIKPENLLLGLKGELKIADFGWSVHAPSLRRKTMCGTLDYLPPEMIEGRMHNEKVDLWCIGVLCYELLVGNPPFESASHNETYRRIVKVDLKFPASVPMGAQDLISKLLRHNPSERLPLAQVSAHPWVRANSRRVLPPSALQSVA

O=C(Nc1c[nH]nc1-c1nc2cc(CN3CCOCC3)ccc2[nH]1)NC1CCOCC1
pIC50 (Aurora kinase B): 8.00
pIC50 [1]: 4.77
Activity (HCT-116 [2]): 1 µM
pIC50 (Aurora kinase A): 7.59

O=C(Nc1cccnc1)Nc1c[nH]nc1-c1nc2cc(CN3CCOCC3)ccc2[nH]1
pIC50 (Aurora kinase B): 7.62
pIC50 [1]: 6.54
pIC50 [3]: 6.80
Activity (HCT-116 [2]): 1 µM
pIC50 (Aurora kinase A): 7.89

O=C(Nc1c[nH]nc1-c1nc2cc(CN3CCOCC3)ccc2[nH]1)c1ccccc1
pIC50 (Aurora kinase B): 7.82
pIC50 [1]: 6.47
pIC50 [3]: 6.85
Activity (HCT-116 [2]): 0.1 µM
pIC50 (Aurora kinase A): 8.46

O=C(Nc1c[nH]nc1-c1nc2ccccc2[nH]1)c1ccccc1
pIC50 (Aurora kinase B): 6.74
pIC50 [1]: 6.64
Activity (HCT-116 [2]): 3 µM

Cc1cc(Nc2cc(N3CCN(C)CC3)nc(Sc3ccc(NC(=O)C4CC4)cc3)n2)n[nH]1 [TOZASERTIB]
pIC50 (HCT-116 [4]): 7.62
Activity (HCT-116 [2]): 0.03 µM

c1ccc2[nH]c(-c3cc[nH]n3)nc2c1
pIC50 (Aurora kinase B): 5.19
pIC50 [3]: 4.55
inhibition [5]: 49%

Cl.O=C(Nc1c[nH]nc1-c1nc2cc(CN3CCOCC3)ccc2[nH]1)NC1CC1
Activity (Mus musculus [6]): Non-toxic
T/C (HCT-116 [7]): 24%
T/C (HCT-116 [8]): 33%
Activity (Mus musculus [9]): Non-toxic

O=C(Nc1c[nH]nc1-c1nc2cc(CN3CCOCC3)ccc2[nH]1)NC1CCCCC1
pIC50 (Aurora kinase B): 8.28
pIC50 [1]: 5.54
pIC50 [3]: 5.92
Activity (HCT-116 [2]): 0.1 µM
pIC50 (Aurora kinase A): 8.24

O=C(Nc1ccccc1F)Nc1c[nH]nc1-c1nc2cc(CN3CCOCC3)ccc2[nH]1
pIC50 (Aurora kinase B): 8.00
pIC50 [1]: 5.96
pIC50 [3]: 6.64
Activity (HCT-116 [2]): 0.1 µM
pIC50 (Aurora kinase A): 8.55

O=C(Nc1c[nH]nc1-c1nc2cc(CN3CCOCC3)ccc2[nH]1)Nc1c(F)cccc1F
fraction unbound (in vitro): 0.169
pIC50 (Aurora kinase B): 8.59
pIC50 [1]: 6.54
pIC50 [3]: 6.80
logD [10]: 3.1
pIC50 (HCT-116 [4]): 7.77
Activity (HCT-116 [2]): 0.03 µM
pIC50 (Aurora kinase A): 8.82

O=C(Nc1c[nH]nc1-c1nc2ccc(CN3CCOCC3)cc2[nH]1)c1ccc(F)cc1
bioavailability [11]: 26%
fraction unbound (in vitro): 0.005
pIC50 (Aurora kinase B): 7.12
pIC50 [1]: 5.82
pIC50 [3]: 6.28
clearance [12]: 43 mL/min/kg
Activity (HCT-116 [2]): 0.3 µM

CC(=O)Nc1c[nH]nc1-c1nc2ccccc2[nH]1
pIC50 (Aurora kinase B): 6.29
pIC50 [1]: 5.49
pIC50 [3]: 6.00
pIC50 (Aurora kinase A): 7.15

O=C(Nc1ccccc1)Nc1c[nH]nc1-c1nc2cc(CN3CCOCC3)ccc2[nH]1
fraction unbound (in vitro): 0.047
pIC50 (Aurora kinase B): 7.27
pIC50 [1]: 5.26
pIC50 [3]: 5.74
Activity (HCT-116 [2]): 0.3 µM

O=C(Nc1c[nH]nc1-c1nc2ccc(CN3CCOCC3)cc2[nH]1)NC1CC1 [AT-9283]
pIC50 (Cytochrome P450 2C19): < 5.00
pIC50 [13]: 8.00
Cmax [14]: 8.4 µM
pIC50 [15]: 9.00
AUC(0-t) [16]: 0.91 µM·h
pIC50 (Cytochrome P450 2D6): < 5.00
pIC50 [17]: 9.00
AUC(0-t) [18]: 7.7 µM·h
AUC(0-t) [19]: 1.9 µM·h
half-life [20]: 2.5 h
logD [10]: 2.1
Vd [21]: 3.9 L/kg
half-life [22]: 0.5 h
bioavailability [23]: 100%
Cmax [24]: 4.9 µM
solubility [25]: 13000 µg/mL (≈ 34.1 mM)
pIC50 [26]: 9.00
pIC50 (HCT-116 [4]): 7.92
solubility [27]: 2000 µg/mL (≈ 5.24 mM)
clearance [28]: 114 mL/min/kg
pIC50 (Cytochrome P450 1A2): < 5.00
Cmax [29]: 0.45 µM
pIC50 (Cytochrome P450 2C9): < 5.00
bioavailability [30]: 24%
